Patent publication US12077503B2, “Substituted cyclic amides and their use as herbicides” (FMC CORPORATION, priority 2015, dated 2024)

Key:
Assay type in all cases: in vivo
[1] = tested on: soybean (Glycine max); assay: Test C preemergence; details: for Plant response rating, Soybean: scale 0 to 100, 0 no effect, 100 complete control
Outline: (§1)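 Preemergence application to seeds in loam/sand soil, or foliar (postemergence) application to plants 2–18 cm tall in peat moss/vermiculite medium; surfactant-containing non-phytotoxic solvent vehicle; greenhouse. Visual injury vs controls at 13–15 d; 0 = no effect, 100 = complete control.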

[2] = tested on: velvetleaf (Abutilon theophrasti); assay: Test C preemergence; details: for Plant response rating, Velvetleaf: scale 0 to 100, 0 no effect, 100 complete control
Outline: as §1

[3] = tested on: johnsongrass (Sorghum halepense); assay: Test C preemergence; details: for Plant response rating, Johnsongrass: scale 0 to 100, 0 no effect, 100 complete control
Outline: as §1

[4] = tested on: foxtail, giant (giant foxtail, Setaria faberii); assay: Test C preemergence; details: for Plant response rating, Foxtail, Giant: scale 0 to 100, 0 no effect, 100 complete control
Outline: as §1

[5] = tested on: corn (Zea mays); assay: Test C preemergence; details: for Plant response rating, Corn: scale 0 to 100, 0 no effect, 100 complete control
Outline: as §1

[6] = tested on: barnyardgrass (Echinochloa crus-galli); assay: Test C preemergence; details: for Plant response rating, Barnyardgrass: scale 0 to 100, 0 no effect, 100 complete control
Outline: as §1

[7] = tested on: Galium (catchweed bedstraw, Galium aparine); assay: Test C preemergence; details: for Plant response rating, Galium: scale 0 to 100, 0 no effect, 100 complete control
Outline: as §1

[8] = tested on: pigweed (Amaranthus retroflexus); assay: Test C preemergence; details: for Plant response rating, Pigweed: scale 0 to 100, 0 no effect, 100 complete control
Outline: as §1

[9] = tested on: morningglory (Ipomoea coccinea); assay: Test C preemergence; details: for Plant response rating, Morningglory: scale 0 to 100, 0 no effect, 100 complete control
Outline: as §1

[10] = tested on: ryegrass, Italian (Italian ryegrass, Lolium multiflorum); assay: Test C preemergence; details: for Plant response rating, Ryegrass, Italian: scale 0 to 100, 0 no effect, 100 complete control
Outline: as §1

[11] = tested on: ragweed (common ragweed, Ambrosia elatior); assay: Test A preemergence; details: Ambrosia artemisiifolia, pre-emergence, 240 h, Preemergence
Outline: (§2)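 Seeded soil received test chemicals as a preemergence directed spray, and seedlings at one to two leaves, 2–10 cm tall, received them postemergence, in a non-phytotoxic, surfactant-containing solvent mixture. Pots were held in a greenhouse for approximately 10 d, then rated for injury from 0, no effect, to 100, complete control.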

[12] = tested on: barnyardgrass (Echinochloa crus-galli); assay: Test A preemergence; details: Echinochloa crus-galli, pre-emergence, 240 h, Preemergence
Outline: as §2

[13] = tested on: pigweed (Amaranthus retroflexus); assay: Test A preemergence; details: Amaranthus retroflexus, pre-emergence, 240 h, Preemergence
[14] = tested on: Kochia (Kochia scoparia); assay: Test A preemergence; details: Bassia scoparia, pre-emergence, 240 h, Preemergence
Outline: as §2

[15] = tested on: ryegrass, Italian (Italian ryegrass, Lolium multiflorum); assay: Test A preemergence; details: Lolium multiflorum, pre-emergence, 240 h, Preemergence
Outline: as §2

[16] = 31 g ai/ha, 0 is no effect, 100 is complete control

## CN1C[C@H](c2ccc(F)c(F)c2)[C@@H](C(=O)Nc2ccccc2F)C1=O [Compound 596, (3S,4S)-4-(3,4-difluorophenyl)-N-(2-fluorophenyl)-1-methyl-2-oxo-3-pyrrolidinecarboxamide]
[1]; [16]
  Plant response rating (scale of 0 to 100), Soybean: 0
[1]; 62 g ai/ha
  Plant response rating, Soybean: 0
[1]; 125 g ai/ha
  Plant response rating, Soybean: 0
[1]; 250 g ai/ha
  Plant response rating, Soybean: 100
[2]; [16]
  Plant response rating (scale of 0 to 100), Velvetleaf: 10
[2]; 62 g ai/ha
  Plant response rating, Velvetleaf: 20
[2]; 125 g ai/ha
  Plant response rating, Velvetleaf: 30
[2]; 250 g ai/ha
  Plant response rating, Velvetleaf: 55
[3]; [16]
  Plant response rating (scale of 0 to 100), Johnsongrass: 20
[3]; 62 g ai/ha
  Plant response rating, Johnsongrass: 25
[3]; 125 g ai/ha
  Plant response rating, Johnsongrass: 70
[3]; 250 g ai/ha
  Plant response rating, Johnsongrass: 75
[4]; [16]
  Plant response rating (scale of 0 to 100), Foxtail, Giant: 90
[4]; 62 g ai/ha
  Plant response rating, Foxtail, Giant: 90
[4]; 125 g ai/ha
  Plant response rating, Foxtail, Giant: 95
[4]; 250 g ai/ha
  Plant response rating, Foxtail, Giant: 100
[5]; [16]
  Plant response rating (scale of 0 to 100), Corn: 0
[5]; 62 g ai/ha
  Plant response rating, Corn: 0
[5]; 125 g ai/ha
  Plant response rating, Corn: 0
[5]; 250 g ai/ha
  Plant response rating, Corn: 35
[6]; [16]
  Plant response rating (scale of 0 to 100), Barnyardgrass: 90
[6]; 62 g ai/ha
  Plant response rating, Barnyardgrass: 95
[6]; 125 g ai/ha
  Plant response rating, Barnyardgrass: 95
[6]; 250 g ai/ha
  Plant response rating, Barnyardgrass: 95
[7]; [16]
  Plant response rating (scale of 0 to 100), Galium: 30
[7]; 62 g ai/ha
  Plant response rating, Galium: 85
[7]; 125 g ai/ha
  Plant response rating, Galium: 40
[7]; 250 g ai/ha
  Plant response rating, Galium: 85
[8]; [16]
  Plant response rating (scale of 0 to 100), Pigweed: 20
[8]; 62 g ai/ha
  Plant response rating, Pigweed: 25
[8]; 125 g ai/ha
  Plant response rating, Pigweed: 40
[8]; 250 g ai/ha
  Plant response rating, Pigweed: 55
[9]; [16]
  Plant response rating (scale of 0 to 100), Morningglory: 0
[9]; 62 g ai/ha
  Plant response rating, Morningglory: 0
[9]; 125 g ai/ha
  Plant response rating, Morningglory: 10
[9]; 250 g ai/ha
  Plant response rating, Morningglory: 20
[10]; [16]
  Plant response rating (scale of 0 to 100), Ryegrass, Italian: 0
[10]; 62 g ai/ha
  Plant response rating, Ryegrass, Italian: 0
[10]; 125 g ai/ha
  Plant response rating, Ryegrass, Italian: 30
[10]; 250 g ai/ha
  Plant response rating, Ryegrass, Italian: 45
[11]; 125 g ai/ha, visual injury after approximately 10 d, 0 to 100 scale where 0 is no effect and 100 is complete control, read-out: Plant response rating, Ragweed
  pest or weed control at 125 g/ha: 0%
[11]; 500 g ai/ha, visual injury approx. 10 d, read-out: Ragweed plant response rating (0 to 100 scale, 0 is no effect, 100 is complete control)
  pest or weed control at 500 g/ha: 20%
[12]; 125 g ai/ha, visual injury after approximately 10 d, 0 to 100 scale where 0 is no effect and 100 is complete control, read-out: Plant response rating, Barnyardgrass
  pest or weed control at 125 g/ha: 90%
[12]; 500 g ai/ha, visual injury approx. 10 d, read-out: Barnyardgrass plant response rating (0 to 100 scale, 0 is no effect, 100 is complete control)
  pest or weed control at 500 g/ha: 100%
[13]; 125 g ai/ha, visual injury after approximately 10 d, 0 to 100 scale where 0 is no effect and 100 is complete control, read-out: Plant response rating, Pigweed
  pest or weed control at 125 g/ha: 0%
[13]; 500 g ai/ha, visual injury approx. 10 d, read-out: Pigweed plant response rating (0 to 100 scale, 0 is no effect, 100 is complete control)
  pest or weed control at 500 g/ha: 40%
[14]; 125 g ai/ha, visual injury after approximately 10 d, 0 to 100 scale where 0 is no effect and 100 is complete control, read-out: Plant response rating, Kochia
  pest or weed control at 125 g/ha: 20%
[14]; 500 g ai/ha, visual injury approx. 10 d, read-out: Kochia plant response rating (0 to 100 scale, 0 is no effect, 100 is complete control)
  pest or weed control at 500 g/ha: 70%
[15]; 125 g ai/ha, visual injury after approximately 10 d, 0 to 100 scale where 0 is no effect and 100 is complete control, read-out: Plant response rating, Ryegrass, Italian
  pest or weed control at 125 g/ha: 40%
[15]; 500 g ai/ha, visual injury approx. 10 d, read-out: Ryegrass, Italian plant response rating (0 to 100 scale, 0 is no effect, 100 is complete control)
  pest or weed control at 500 g/ha: 50%
